Laboratory results from PubChem BioAssay (NCI).
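A five-concentration, 48-hour dose response in 96-well plates underlies each endpoint, interpolated linearly between surrounding concentrations. The concentration for full growth arrest is given as TGI.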

Columns and labels:
Test in all cases: inhibition of tumour cell growth, NCI panel, 48 h
[1] = tested on: SF-539 CNS
[2] = tested on: UACC-257 melanoma
[3] = tested on: SN12C renal
[4] = tested on: IGROV1 ovarian
[5] = tested on: NCI-H522 lung
[6] = tested on: SK-OV-3 ovarian
[7] = tested on: DMS 114 small cell lung
[8] = tested on: DLD-1 colon
[9] = tested on: MALME-3M melanoma
[10] = tested on: OVCAR-5 ovarian
[11] = tested on: COLO 205 colon
[12] = tested on: A498 renal
[13] = tested on: OVCAR-4 ovarian
[14] = tested on: HCT-15 colon
[15] = tested on: DMS 273 small cell lung
[16] = tested on: SF-295 CNS
[17] = tested on: HCT-116 colon
[18] = tested on: KM12 colon
[19] = tested on: UO-31 renal
[20] = tested on: MOLT-4 leukemia
[21] = tested on: OVCAR-8 ovarian
[22] = tested on: M14 melanoma
[23] = tested on: A549 NSCLC
[24] = tested on: SW-620 colon
[25] = tested on: EKVX NSCLC
[26] = tested on: SNB-78 CNS
[27] = tested on: TK-10 renal
[28] = tested on: OVCAR-3 ovarian
[29] = tested on: NCI-H460 lung
[30] = tested on: U251 CNS
[31] = tested on: LXFL 529 NSCLC
[32] = tested on: HOP-92 NSCLC
[33] = tested on: ACHN renal
[34] = tested on: CAKI-1 renal
[35] = tested on: SNB-75 CNS
[36] = tested on: SNB-19 CNS
[37] = tested on: UACC-62 melanoma
[38] = tested on: SF-268 CNS
[39] = tested on: SK-MEL-28 melanoma
[40] = tested on: CCRF-CEM leukemia
[41] = tested on: SK-MEL-5 melanoma
[42] = tested on: NCI-H23 lung
[43] = tested on: RXF 393 renal
[44] = tested on: NCI-H226 lung
[45] = tested on: LOX IMVI melanoma
[46] = tested on: HL-60(TB) leukemia
[47] = tested on: HCC-2998 colon
[48] = tested on: KM20L2 colon
[49] = tested on: SR leukemia
[50] = tested on: 786-0 renal
[51] = tested on: M19-MEL melanoma
[52] = tested on: K-562 leukemia
[53] = tested on: SK-MEL-2 melanoma
[54] = tested on: HOP-62 NSCLC
[55] = tested on: HT29 colon
[56] = tested on: RPMI-8226 leukemia
[57] = tested on: XF 498 CNS

Measured: TGI

NC(CCC(=O)NC(CSC(=O)N(O)c1ccccc1)C(=O)NCC(=O)O)C(=O)O (stereo not given)
> 1 mM: [2] | [6] | [8] | [12] | [32] | [34] | [47]
> 1000 µM: [1] | [3] | [4] | [5] | [7] | [9] | [10] | [11] | [13] | [14] | [15] | [16] | [17] | [18] | [19] | [20] | [21] | [22] | [23] | [24] | [25] | [26] | [27] | [28] | [29] | [30] | [31] | [33] | [35] | [36] | [37] | [38] | [39] | [40] | [41] | [42] | [43] | [44] | [45] | [46] | [48] | [49] | [50] | [51] | [52] | [53] | [54] | [55]

CSc1sc(=S)sc1C(=O)N(C)c1ccccc1
82.5 µM: [35]
> 100 µM: [1] | [3] | [4] | [5] | [7] | [9] | [10] | [11] | [13] | [56] | [14] | [15] | [16] | [17] | [18] | [19] | [20] | [21] | [22] | [23] | [24] | [25] | [26] | [27] | [28] | [29] | [30] | [31] | [33] | [36] | [37] | [38] | [57] | [39] | [40] | [41] | [42] | [43] | [44] | [45] | [46] | [48] | [49] | [50] | [51] | [52] | [53] | [54] | [55]
